{"source": "patent US20210283087A1", "about": "“METHOD FOR TREATING AND RELIEVING MYOPIA” (China Medical University, priority 2014, published 2021)", "key": {"[1]": {"system": "primary sclera fibroblast", "assay": "Immunofluorescence of MMP2 and COL1 in primary scleral fibroblasts", "assay_type": "cell-based, rat", "settings": "100 μM atropine for 24 hours", "method": "Primary sclera fibroblast cells plating on cover slides were washed with Tris-buffered saline (TBS), and subsequently fixed with 4% paraformaldehyde and washed twice with TBS before blocking with 1% BSA and 0.1% Triton X-100 for 1 hour. The cells were incubated with anti-MMP2 or anti-COL1 for 1 hour before being washed three times with TBS and subsequently incubated with an appropriate secondary antibody and a 4′,6-diamidino-2-phenylindole (DAPI) DNA stain. After being washed three times with TBS, the cells were imaged using fluorescence microscopy. All experiments were performed at least in triplicate."}, "[2]": {"system": "sclera or retina of guinea pig MFD eye", "assay": "Immunohistochemistry of guinea pig MFD eyes", "assay_type": "in vivo", "method": "Eyes were collected from atropine-treated and control animals, embedded in paraffin, and cut at a thickness of 20 μm; subsequently, the sections were placed on glass slides. Antigen retrieval was performed by boiling the slides in citrate buffer (pH 6.0); the sections were then stained with antibodies against IL-6, TNF-α, TGF-β, MMP2, c-Fos, NF-κB, and CHRM1 and 3. The EnVision System peroxidase kit (DAKO, Carpentaria, Calif., USA) was used to visualize immunoreactivity.\nWe observed a similar increase in inflammatory response in hamsters as we did in a guinea pig model of MFD."}, "guinea pig with MFD": {"system": "guinea pig with MFD", "assay": "Refractive power and axial length in guinea pig MFD model", "assay_type": "in vivo, albino guinea pigs", "settings": "MFD + 1% atropine; Day 21", "method": "In this study, a total of 160 golden Syrian hamsters aged 3 weeks, weighing 80 to 90 g, and 20 albino guinea pigs, aged 2 to 3 weeks, were used for experiments. All animals were kept in a 12-hour light/dark cycle. All procedures were approved by the Institutional Animal Care and Use Committee of China Medical University and were conducted in accordance with the guidelines of the Use of Animals in Ophthalmic and Vision Research. Hamsters were raised with a right eyelid fusion for 21 days. Myopia was induced in the guinea pigs by covering the right eye with a cloth attached to the skin at a distance of at least 1 cm from the eye. MFD was induced in the right eye (with the left eye serving as a control) of animals randomly assigned to treatment or control groups (n=10 animals each) receiving daily applications of drug or phosphate-buffered saline (PBS), respectively, to both eyes.\nThe RE (i.e., spherical-component RE, which is defined as the mean RE in horizontal and vertical meridians) was measured using a hand-held streak retinoscope. Animals were anesthetized with 10% ether in O2. Ocular refraction was evaluated at the start and end of the experiment. […] The axial lengths were determined through A-scan ultrasonography (PacScan 300 Plus, NY, USA). […]"}}}
{"smiles": "CN1[C@@H]2CC[C@H]1C[C@@H](OC(=O)C(CO)c1ccccc1)C2", "note": "(stereo partly shown) [Atropine, atropine]", "values": [{"measurement": "COL1 expression", "setting": "[1]", "result": "increased"}, {"measurement": "Expression levels of MMP2", "setting": "[1]", "result": "inhibited"}, {"measurement": "MFD downregulation of IL-10 level", "setting": "[2]; atropine", "result": "suppressed"}, {"measurement": "COL1 expression in sclera or retina of the MFD eye", "setting": "[2]; atropine compared to PBS", "result": "increased"}, {"measurement": "MMP2, TGF-β, and c-Fos expression in sclera or retina of the MFD eye", "setting": "[2]; atropine compared to PBS", "result": "reduced"}, {"measurement": "Refractive power, left eye (control eye)", "setting": "guinea pig with MFD", "result": "−1.50±0.82", "unit": "D"}, {"measurement": "Refractive power, right eye (myopic eye)", "setting": "guinea pig with MFD", "result": "−6.79±1.00", "unit": "D"}]}
